The assay concerns HEK-Blue TGFβ cell. The assay can be described thus: HEK-Blue TGFβ cellular reporter gene assay (SEAP readout). Format: cell-based. The settings on record: HEK-Blue TGFβ cells stimulated with TGF-β, 22-23 h incubation, SEAP read at 630 nm. The method, then: HEK-Blue TGFβ Cellular Reporter Gene Assay:
HEK-Blue TGFβ cell was purchased from Invivogen. Cell suspension of 2.5×10^5 cells/ml was prepared using Test Medium (DMEM containing 0.5% v/v heat-inactivated FBS). TGF-β working solution (6 ng/ml) was obtained through diluting TGF-β stock solution (10 μg/ml) by Test Medium before use. Eight different concentrations of all compounds were obtained by 3× gradient dilution method using TGF-β working solution. Add 100 μl of Test Medium (Vehicle) or test article or TGF-β working solution per well of a flat-bottom 96-well plate. Add 100 μl of HEK-Blue TGF-β cell suspension per well. Incubate the plate at 37° C. in a CO2 incubator for 22-23 h. Add 150 μl of resuspended QUANTI-Blue per well of a new flat-bottom 96-well plate. Add 30 μl of induced HEK-Blue TGF-β cells supernatant. Avoid pipetting at the bottom of wells. Incubate the plate at 37° C. incubator for 30-40 min. Determine secreted embryonic alkaline phosphatase (SEAP) levels using a spectrophotometer at 630 nm.
The inhibition was calculated using the equation: […]

Among the data in patent US20220054465A1, “(PYRIDIN-2-YL)AMINE DERIVATIVES AS TGF-BETA R1 (ALK5) INHIBITORS FOR THE TREATMENT OF CANCER” (Nexys Therapeutics, Inc., priority 2018, published 2022) are IC50 values, retold here.

In turn, `Cc1cc(Oc2ccnc(Nc3ccc(CCC(=O)O)cc3)c2)c(-c2ccccn2)nc1C` [Example 2] registered an IC50 of 230 nM.
On to `Cc1cc(Oc2ccnc(Nc3cncc(CCC(=O)O)c3)c2)c(-c2ccccn2)nc1C` [Example 3], for which the IC50 was greater than 10000 nM.
To `Cc1cc(Oc2ccnc(Nc3ccc(F)c(CCC(=O)O)c3)c2)c(-c2ccccn2)nc1C` [Example 4] belongs 200 nM; to `Cc1cc(Oc2ccnc(Nc3ccc(Cl)c(CCC(=O)O)c3)c2)c(-c2ccccn2)nc1C` [Example 5], 150 nM.
Then `Cc1cc(Oc2ccnc(Nc3cc(CCC(=O)O)ccc3F)c2)c(-c2ccccn2)nc1C` [Example 6], with 160 nM; and `Cc1cc(Oc2ccnc(Nc3cccc(CCC(=O)O)n3)c2)c(-c2ccccn2)nc1C` [Example 7], with 170 nM; and `Cc1cc(Oc2ccnc(Nc3cc(CCC(=O)O)ccn3)c2)c(-c2ccccn2)nc1C` [Example 8], with 590 nM.
The compound `Cc1cc(Oc2ccnc(Nc3ccnc(CCC(=O)O)c3)c2)c(-c2ccccn2)nc1C` [Example 9] showed an IC50 greater than 10000 nM.
The compound `Cc1cc(Oc2ccnc(Nc3cccc(CCC(=O)O)c3F)c2)c(-c2ccccn2)nc1C` [Example 10] showed an IC50 of 220 nM.
To `Cc1cc(Oc2ccnc(Nc3cccc(-c4nnn[nH]4)c3)c2)c(-c2ccccn2)nc1C` [Example 13] belongs 1080 nM.
The compound `Cc1cc(Oc2ccnc(Nc3ccc(-c4nnn[nH]4)cc3)c2)c(-c2ccccn2)nc1C` [Example 14] displayed an IC50 greater than 10000 nM.
To `Cc1cc(Oc2ccnc(Nc3ccc(Cc4nnn[nH]4)cc3)c2)c(-c2ccccn2)nc1C` [Example 15] belongs 1840 nM; to `Cc1cc(Oc2ccnc(Nc3cccc(C(C)(C)c4nnn[nH]4)c3)c2)c(-c2ccccn2)nc1C` [Example 18], 180 nM; to `Cc1cc(Oc2ccnc(Nc3cc(CCc4nnn[nH]4)ccc3F)c2)c(-c2ccccn2)nc1C` [Example 19], 160 nM.
Then `Cc1cc(Oc2ccnc(Nc3ccc(Cl)c(CCc4nnn[nH]4)c3)c2)c(-c2ccccn2)nc1C` [Example 20], with 120 nM; and `Cc1cc(Oc2ccnc(Nc3ccc(F)c(CCc4nnn[nH]4)c3)c2)c(-c2ccccn2)nc1C` [Example 21], with 160 nM; and `Cc1cc(Oc2ccnc(Nc3ccc(C(F)(F)F)c(CCc4nn[nH]n4)c3)c2)c(-c2ccccn2)nc1C` [Example 22], with 230 nM.
Then `Cc1cc(Oc2ccnc(Nc3cncc(CCc4nnn[nH]4)c3)c2)c(-c2ccccn2)nc1C` [Example 23], with greater than 10000 nM; and `Cc1cc(Oc2ccnc(Nc3cc(CCc4nnn[nH]4)ccn3)c2)c(-c2ccccn2)nc1C` [Example 24], with 4530 nM; and `Cc1cc(Oc2ccnc(Nc3cccc(CCc4nnn[nH]4)c3F)c2)c(-c2ccccn2)nc1C` [Example 25], with 640 nM.
With `Cc1cc(Oc2ccnc(Nc3cccc(CCc4nnn[nH]4)n3)c2)c(-c2ccccn2)nc1C` [Example 26], it took 350 nM to reach half-maximal inhibition (IC50). Against the preceding compound, the IC50 is about 1.8-fold lower.
To `Cc1cc(Oc2ccnc(Nc3cccc(CCc4nnn[nH]4)c3C)c2)c(-c2ccccn2)nc1C` [Example 27] belongs 250 nM; to `Cc1ccc(Nc2cc(Oc3cc(C)c(C)nc3-c3ccccn3)ccn2)cc1CCc1nnn[nH]1` [Example 28], 50 nM; to `Cc1cc(CCc2nnn[nH]2)cc(Nc2cc(Oc3cc(C)c(C)nc3-c3ccccn3)ccn2)c1` [Example 29], 38 nM.
Then `Cc1ccc(CCc2nnn[nH]2)cc1Nc1cc(Oc2cc(C)c(C)nc2-c2ccccn2)ccn1` [Example 30], with 110 nM; and `Cc1cc(Oc2ccnc(Nc3cnn(CCc4nn[nH]n4)c3)c2)c(-c2ccccn2)nc1C` [Example 31], with greater than 10000 nM; and `Cc1cc(Oc2ccnc(Nc3ccn(CCc4nn[nH]n4)n3)c2)c(-c2ccccn2)nc1C` [Example 32], with 3710 nM.
To `Cc1cc(Oc2ccnc(Nc3cccc(OCc4nnn[nH]4)c3)c2)c(-c2ccccn2)nc1C` [Example 33] belongs 7310 nM; to `Cc1cc(Oc2ccnc(Nc3cccc(Cc4nnn(CC(=O)O)n4)c3)c2)c(-c2ccccn2)nc1C` [Example 34A, 2-(5-(3-((4-((5,6-dimethyl-[2,2′-bipyridin]-3-yl)oxy)pyridin-2-yl)amino)benzyl)-2H-tetrazol-2-yl)acetic acid], 12700 nM.
The compound `Cc1cc(Oc2ccnc(Nc3cccc(Cc4nnnn4CC(=O)O)c3)c2)c(-c2ccccn2)nc1C` [Example 34B, 2-(5-(3-((4-((5,6-dimethyl-[2,2′-bipyridin]-3-yl)oxy)pyridin-2-yl)amino)benzyl)-1H-tetrazol-1-yl)acetic acid] returned an IC50 greater than 10000 nM.
To `Cc1cc(Oc2ccnc(Nc3ccc(Cc4nnn(CC(=O)O)n4)cc3)c2)c(-c2ccccn2)nc1C` [Example 35A] belongs greater than 10000 nM; to `Cc1cc(Oc2ccnc(Nc3ccc(Cc4nnnn4CC(=O)O)cc3)c2)c(-c2ccccn2)nc1C` [Example 35B], greater than 10000 nM.
To `Cc1ccc(Oc2ccnc(Nc3ccc(F)c(CCC(=O)O)c3)c2)c(C)n1` [Example 36, 3-(5-((4-((2,6-dimethylpyridin-3-yl)oxy)pyridin-2-yl)amino)-2-fluorophenyl)propanoic acid] belongs 180 nM.
As to `Cc1ccc(Oc2ccnc(Nc3cccc(CCC(=O)O)n3)c2)c(C)n1` [Example 37], the IC50 was found to be 200 nM.
To `Cc1ccc(Oc2ccnc(Nc3cncc(CCC(=O)O)c3)c2)c(C)n1` [Example 38] belongs greater than 10000 nM; to `Cc1ccc(Oc2ccnc(Nc3cc(CCC(=O)O)ccc3F)c2)c(C)n1` [Example 39], 260 nM; to `Cc1ccc(Oc2ccnc(Nc3cccc(CCC(=O)O)c3F)c2)c(C)n1` [Example 40], 220 nM.
For the compound `Cc1ccc(Oc2ccnc(Nc3ccc(Cl)c(CCC(=O)O)c3)c2)c(C)n1` [Example 41], inhibition was half-maximal at 100 nM (IC50).
To `Cc1ccc(Oc2ccnc(Nc3cc(CCC(=O)O)ccn3)c2)c(C)n1` [Example 42] belongs 140 nM; to `Cc1ccc(Oc2ccnc(Nc3cccc(CCC(=O)O)c3)c2)c(C#N)n1` [Example 43], 3810 nM; to `Cc1ccc(Oc2ccnc(Nc3cc(CCc4nn[nH]n4)ccc3F)c2)c(C)n1` [Example 45], 420 nM.
`Cc1ccc(Oc2ccnc(Nc3cccc(CCc4nn[nH]n4)c3F)c2)c(C)n1` [Example 46] gave an IC50 of 520 nM.
Then `Cc1ccc(Oc2ccnc(Nc3cccc(CCc4nn[nH]n4)n3)c2)c(C)n1` [Example 47], with 310 nM; and `Cc1ccc(Oc2ccnc(Nc3cc(CCc4nn[nH]n4)ccn3)c2)c(C)n1` [Example 48], with 3030 nM.
To `Cc1ccc(Oc2ccnc(Nc3cncc(CCc4nn[nH]n4)c3)c2)c(C)n1` [Example 49] belongs greater than 10000 nM; to `Cc1ccc(Oc2ccnc(Nc3ccc(Cl)c(CCc4nn[nH]n4)c3)c2)c(C)n1` [Example 50], 630 nM.
To `Cc1ccc(Oc2ccnc(Nc3ccc(F)c(CCc4nn[nH]n4)c3)c2)c(C)n1` [Example 51] belongs 270 nM; to `Cc1ccc(Oc2ccnc(Nc3cccc(CCc4nn[nH]n4)c3)c2)c(-c2cccnc2)n1` [Example 53], 2950 nM; to `Cc1ccc(Oc2ccnc(Nc3cccc(CCc4nn[nH]n4)c3)c2)c(-c2ccncc2)n1` [Example 54], 6390 nM.
Compound `Cc1ccc(Oc2ccnc(Nc3cccc(CCc4nn[nH]n4)c3)c2)c(-c2ccccn2)n1` [Example 55] returned an IC50 of 200 nM.
In turn, `CCc1nc(C)ccc1Oc1ccnc(Nc2cccc(CCc3nn[nH]n3)c2)c1` [Example 56] gave an IC50 of 160 nM.
Then `CCc1ccc(Oc2ccnc(Nc3cccc(CCc4nn[nH]n4)c3)c2)c(C)n1` [Example 57], with 130 nM.
As for `Cc1ccc(Oc2ccnc(Nc3cccc(CCc4nn[nH]n4)c3)c2)c(C(F)(F)F)n1` [Example 58], the midpoint of inhibition, the IC50, lay at 150 nM.
Then `Cc1nc2ccccc2cc1Oc1ccnc(Nc2cccc(CCc3nn[nH]n3)c2)c1` [Example 59], with 450 nM.
Turning to `Cc1ccc(Oc2ccnc(Nc3cccc(C(C)(C)c4nnn[nH]4)c3)c2)c(-c2ccccc2)n1` [Example 60], the midpoint of inhibition, the IC50, lay at 79 nM.
To `Cc1nc(-c2ccccc2)ccc1Oc1ccnc(Nc2cccc(C(C)(C)c3nn[nH]n3)c2)c1` [Example 61] belongs 190 nM; to `Cc1ccc(Oc2ccnc(Nc3cccc(CCc4nn[nH]n4)c3)c2)c(-c2cnn(C)c2)n1` [Example 62], 2110 nM; to `Cc1cccc(-c2nc(C)ccc2Oc2ccnc(Nc3cccc(CCc4nn[nH]n4)c3)c2)n1` [Example 63], 720 nM.
Then `Cc1ccc(Oc2ccnc(Nc3cccc(CCc4nn[nH]n4)c3)c2)c(-c2ncccc2C)n1` [Example 64], with 2600 nM.
As to `Cc1ccc(Oc2ccnc(Nc3ccc(C(F)(F)F)c(CCc4nn[nH]n4)c3)c2)c(-c2ccccn2)n1` [Example 65], half-maximal inhibition (IC50) was put at 520 nM. Against the preceding compound, the IC50 is about 5-fold lower.
As for `Cc1ccc(Oc2ccnc(Nc3cccc(CCC(=O)O)c3)c2)c(-c2ccccc2)n1` [Example 66, 3-(3-((4-((6-methyl-2-phenylpyridin-3-yl)oxy)pyridin-2-yl)amino)phenyl)propanoic acid], the IC50 is 24 nM.
Compound `c1cc(CCc2nn[nH]n2)cc(Nc2cc(Oc3cn(C4CC4)nc3C3CCOCC3)ccn2)c1` [Example 67, N-(3-(2-(2H-tetrazol-5-yl)ethyl)phenyl)-4-((1-cyclopropyl-3-(tetrahydro-2H-pyran-4-yl)-1H-pyrazol-4-yl)oxy)pyridin-2-amine] registered an IC50 of 2650 nM.
